# Entries after “also recorded” stand apart in the source; their conditions may differ.
# Columns and labels:
# mice sensitized to TDI = assay: Mouse ear swelling test in mice sensitized to toluene-2,4-diisocyanate (TDI), topical application; format: in vivo, BALB/c-mice; conditions: for TDI-induced ear swelling: AWD 12-281 1%, cilomilast 3%, diflorasone 0.05%
# Experimental: FIG. 6: Effect of PDE 4 inhibitors on TDI induced ear swelling in mice. […] After 1 h (grey bars) groups of mice were treated with 3% AWD 12-281, 10% cilomilast or left untreated (TDI). After 24 h, ear swelling was determined (black bars). […] Female BALB/c-mice were obtained from Charles River (Sulzfeld, Germany) at the age of 8 weeks (20 g body weight). All animals were healthy and were housed in groups of six mice per cage at 22° C. with a 12-h light/dark-cycle. Water and a standard diet (Altromin, […], Germany) were available ad libitum. After settling in for 1 week, the abdominal skin of the mice was shaved and depilated with Veet®. Subsequently, the horny layers of the abdominal skin were stripped off ten times with adhesive tapes. […] Before as well as 24 h after challenge, the ear thickness was measured with a cutimeter (model 7309, Mitutoyo, Neuss, Germany) The swelling was calculated by comparison of the values before challenge with 24 h after challenge. […] The other mice were equally distributed to the treatment groups (n=6) according to their swelling intensity, so that each group contained animals which had responded to varying extents. They had to rest until the ear thickness had reached almost a normal level after 7 days. To exclude residues of the allergen on the ears, the untreated right ears were used for the main experiment. One group of mice (n=6) was not sensitized and challenged. […] Two hours before TDI-challenge, the third and fourth group (each n=6) were treated with 20 μl (10 μl on both, the inner and outer surface) AWD 12-281 (1%=200 μg) or 20 μl cilomilast (3%=600 μg; each in acetone/DMSO 9:1) to the right ears. […] These mice were sacrificed by cervical dislocation 24 hours after TDI challenge and the ears were collected (see below). […] Five weeks after the first challenge, the animals treated with AWD 12-281 (1%) and cilomilast (3%) “therapeutically” were challenged again. Before challenge, one group was treated with AWD 12-281 (3%).
# [1] = system: granulocyte influx in the dermis of mice ears; assay: Histological examination of mouse ear skin after TDI challenge; format: in vivo, BALB/c-mice; conditions: mouse ear skin 24 h after TDI challenge; topical treatment
# Experimental: (§1) One part of the collected ears was fixed in 4% formaldehyde for histological section and stained with haematoxylin-eosin with respect to dermal thickness and granulocyte accumulation. These parameters were measured in 10 fields at 40 times magnification. The remaining tissue was shock-frozen and stored in liquid nitrogen immediately after sampling. For the determination of biochemical parameters, the mice ears were homogenized under liquid nitrogen. The homogenates were taken in 200 μl RPMI 1640 medium and the protease inhibitor Pefabloc® (1 mmol) was added and the samples were mixed intensively. After centrifugation (10000 g, 10 min, 4° C.), the supernatant was collected and the protein content was determined. The samples were stored at −80° C. until the cytokines were determined. Interleukin (IL) 4, IL-6 and MIP-2 were measured in the samples by ELISA using commercially available kits according to manufacturers instructions.
# interleukin 4 = assay: IL-4 in homogenized mouse ears after TDI challenge (ELISA); format: in vivo, BALB/c-mice; conditions: 24 h after TDI challenge, cilomilast 3%, diflorasone 0.05%; for concentration of interleukin 4 in homogenized mouse ears: topical 2 h before challenge, AWD 12-281 1%; for IL-4, mean inhibition (%) of the TDI induced synthesis: AWD 12-281 3%
# Experimental: as §1
# interleukin 6 = assay: IL-6 in homogenized mouse ears after TDI challenge (ELISA); format: in vivo, BALB/c-mice; conditions: 24 h after TDI challenge, cilomilast 3%, diflorasone 0.05%; for concentration of interleukin 6 in homogenized mouse ears: topical 2 h before challenge, AWD 12-281 1%; for IL-6, mean inhibition (%) of the TDI induced synthesis: AWD 12-281 3%
# Experimental: as §1
# [2] = system: macrophage inflammatory protein 2; assay: MIP-2 in homogenized mouse ears after TDI challenge (ELISA); format: in vivo, BALB/c-mice; conditions: 24 h after TDI challenge, cilomilast 3%, diflorasone 0.05%; for concentration of macrophage inflammatory protein 2 in homogenized mouse ears: topical 2 h before challenge, AWD 12-281 1%; for MIP-2, mean inhibition (%) of the TDI induced synthesis: AWD 12-281 3%
# Experimental: as §1
# [3] = system: chronic obstructive pulmonary disease; conditions: Phase II/III clinical trials; Giembycz, 2001, Dyke & Montana, 2002; cited from earlier work
# IL-4 = conditions: Griswold et al., 1998; cited from earlier work
# [4] = single topical application 2 h before TDI challenge, 1, 5 and 24 h after challenge
# [5] = topical 1 h after TDI challenge (therapeutic), 24 h after challenge
Structure (SMILES),TDI-induced ear swelling (mice sensitized to TDI; [4]),TDI-induced ear swelling (mice sensitized to TDI; [5]),"TDI-induced ear swelling (mice sensitized to TDI; topical 1 h after TDI challenge (therapeutic), 24 h after challenge, listed as Cilomilast)","TDI induced ear swelling (mice sensitized to TDI; treated 1 h after 0.5% TDI, 3% AWD 12-281, 10% cilomilast, ear swelling after 24 h (FIG. 6))",edema and influx of inflammatory cells (mainly granulocytes) [1],concentration of interleukin 4 in homogenized mouse ears (interleukin 4),concentration of interleukin 4 in homogenized mouse ears (interleukin 4; listed as Cilomilast),"IL-4, mean inhibition (%) of the TDI induced synthesis (interleukin 4) [%]",concentration of interleukin 6 in homogenized mouse ears (interleukin 6),concentration of interleukin 6 in homogenized mouse ears (interleukin 6; listed as Cilomilast),"IL-6, mean inhibition (%) of the TDI induced synthesis (interleukin 6) [%]",concentration of macrophage inflammatory protein 2 in homogenized mouse ears [2],concentration of macrophage inflammatory protein 2 in homogenized mouse ears ([2]; listed as Cilomilast),"MIP-2, mean inhibition (%) of the TDI induced synthesis [2] [%]",lung function [3],IL-4 in vivo (IL-4)
COc1ccc([C@]2(C#N)CC[C@@H](C(=O)O)CC2)cc1OC1CCCC1 [cilomilast],inhibited the TDI-induced swelling significantly at all measured times,lacks significant inhibitory effects; also recorded: failed to do so,"no significant inhibition; also recorded: slight, but not significant reduction of the swelling",did not show a significant inhibitory effect,inhibited these inflammatory processes markedly,inhibited the increase significantly,reduced the concentration of all mediators significantly,74,inhibited this response significantly,reduced the concentration of all mediators significantly,49,diminished the increase of the MIP-2 concentration significantly,reduced the concentration of all mediators significantly,66,clinically significant increase in lung function,inhibit IL-4 in vivo
"CC(=O)OCC(=O)[C@@]1(OC(C)=O)[C@@H](C)C[C@H]2[C@@H]3C[C@H](F)C4=CC(=O)C=C[C@]4(C)[C@@]3(F)[C@@H](O)C[C@@]21C [diflorasone, reference compound]",inhibited the TDI-induced swelling significantly at all measured times,inhibited the TDI induced ear swelling significantly,,,inhibited these inflammatory processes markedly,reduced the concentration of all mediators significantly; also recorded: inhibited the increase significantly,,50,reduced the concentration of all mediators significantly; also recorded: inhibited this response significantly,,52,reduced the concentration of all mediators significantly; also recorded: diminished the increase of the MIP-2 concentration significantly,,76,,

# From patent US20040038958A1, “Topical treatment of skin diseases” (priority 2002, published 2004)
